Values joined by “and” are separate entries in the source; they are usually repeats but may differ in a detail not shown here. Equal values may be shown once. Bridge positions count the residues as written; N and C are the ends. Square brackets hold non-standard residues; d marks the D form. Trp(5-F) = N[C@@H](Cc1c[nH]c2ccc(F)cc12)C(=O)O
Tests used:
[1] = Indirect ophthalmoscope exam in dose-ranging study for vitreous deposits formation; format: in vivo, New Zealand White rabbits; parameters: key to Indirect Exam Vit.: 0: Clear, no deposits, bubbles, or haziness detectable; 1: Light haziness, no opaque deposits or vitreous opacity; 2: Moderate opacity or opaque bubble or deposit; 3: Pronounced vitreal opacity; 4: Opaque; key to Indirect Exam Retina: 0: Flat, no mars, blisters or blemishes; 1: Not flat; has wrinkles, bumps, or ripples; 2: Minor inflammation or bleeding; 3: Retinal detachment, moderate hemorrhage; 4: Destruction of retinal tissue (GA, CNV, retinal tear); settings: NZW rabbit; for Indirect Exam Retina / Indirect Exam Vit.: 27 hours after treatment
Procedure: The study examined the ability of compound in amounts ranging from 0 to 200 μg/eye (0, 25, 50, 75, 100, 125, 150,175, 200 μg) to form deposits in the eye following intravitreal injection (Table 2). Each concentration was injected into three eyes. Thirteen animals were used for dose-ranging. Five additional animals were used for histological analysis.
Injection Procedures: Intravitreal injections were administered using a 0.5 cc tuberculin syringe (with permanently attached 29 G ½ inch needle); 0.2 ml of compound solution was withdrawn from the vial. Excess liquid was expelled, so that the syringe contained only the necessary volume of liquid for a single injection (50 μl). The eye was kept open using an eye lid speculum. The needle was inserted in the supero-temporal quadrant, through an area 3.5-4.0 mm posterior to the limbus, avoiding the horizontal meridian and aiming toward the center of the eye. Only half (¼ inch) of the needle total length (½ inch) was inserted into the eye. The injection volume was delivered slowly to prevent a rapid increase in intraocular pressure. To ensure that all the solution is in the eye and to avoid push-back through the injection site, the needle was removed slowly.
Ophthalmic Examinations: All animals received an ophthalmic exam (indirect ophthalmoscope) by a practicing clinical ophthalmologist prior to sacrifice.

[2] = Intravitreal administration to non-human primates: deposit formation and compound content (Example 1); format: in vivo; settings: Cynomolgus monkey, IVT 150 μg/eye, from 4 hours to 2 weeks post administration
Procedure: Two different formulations were manufactured by dissolving the compound into water for injection at different concentrations: (i) 0.299 mg/mL, designated LD and (ii) 4.51 mg/mL, designated as HD and filter sterilizing through a Millipore Durapore 47 mm 0.22 μm filter. The liquid compositions were dispensed into individual vials (250 μl each). The pH of the LD composition was 5.48 while that of the HD composition was 6.0.
During studies involving intravitreal administration of the compstatin analog whose synthesis was described above (SEQ ID NO: 32) in water for injection to non-human primates it was observed that the compound has the ability to form gel-like, approximately spheroidal intravitreal deposits in the primate (Cynomolgus monkey) eye following intravitreal injection. […]
(§1) At necropsy, in the majority of male animals (10 of 12) that had been dosed with compound IVT at 150 μg/eye, gel-like spheroidal intravitreal deposits were observed upon dissection of the eye. These deposits were isolated and analyzed for the presence of the compound.
The deposits were analyzed for drug content, and drug content was observed and measured using HPLC.

[3] = Further studies of deposits, serum and vitreous concentration after intravitreal injection (Example 3); format: in vivo, Cynomolgus monkeys
Procedure: In one study, Cynomolgus monkeys were administered 0, 150, 450, 1050, or 2100 μg of compound in 50 μl WFI by intravitreal injection.
Some of the animals that had been administered 0, 450, 1050, or 2100 μg were sacrificed, and compound concentration in serum and vitreous was measured 14 days following administration. Compound measurement was performed using HPLC. […] When administered at concentrations too low to form a deposit, the compound is cleared from the Cynomolgus vitreous with a T1/2 of about 22 hours. Therefore, it is evident that the compound measured in this experiment after 2 weeks must reflect release from the deposit rather than residual compound that was never present in the deposit.
The study was continued to evaluate behavior of the deposits over time. […] There was evidence that they were diminishing in size and/or density at the 6 month time point. […] The deposits could be observed both by ophthalmoscopic examination and ultrasound. They appeared to continue diminishing in size and/or split into multiple smaller deposits over time.
The deposits were undetectable using these techniques by approximately 1 week following dosing.

[4] = Histopathological analysis of eyes after intravitreal injection; format: in vivo, New Zealand White rabbits
Procedure: Histopathological Analysis: After examination, animals were euthanized and eyes were enucleated, fixed in Davidson's solution, sectioned and H/E stained. Sections from both eyes of animals receiving 25, 50, or 100 μg/eye of compound (Table 2, last three animals) were examined by an American Board of Pathology-certified pathologist, and peer-reviewed by a board-certified and recognized expert veterinary pathologist.
Five animals in this study were also processed for histopathological evaluation. The eyes were evaluated by two pathologists. […] The cornea, iris, ciliary body, lens, sclera, retina, and vitreous were all normal.

[5] = Ocular safety examinations after intravitreal injection (Example 1); format: in vivo; settings: Cynomolgus monkey
Procedure: During studies involving intravitreal administration of the compstatin analog whose synthesis was described above (SEQ ID NO: 32) in water for injection to non-human primates it was observed that the compound has the ability to form gel-like, approximately spheroidal intravitreal deposits in the primate (Cynomolgus monkey) eye following intravitreal injection. […] The high dose consisted of the intravitreal (IVT) injection of an estimated dose of 150 μg of compound in a volume of 50 μL water for injection while the low dose consisted of an estimated dose of 3 μg of compound in a volume of 50 μL water for injection.
as §1

[6] = test system: complement activation; settings: relative to compstatin amidated at the C-terminus; based on published data; cited from earlier work

## CC[C@H](C)[C@H](NC(C)=O)C(=O)N[C@H]1CSSC[C@@H](C(=O)N[C@H](C(N)=O)[C@@H](C)O)NC(=O)[C@H](CCCNC(=N)N)NC(=O)[C@H](Cc2cnc[nH]2)NC(=O)[C@H](C)NC(=O)CNC(=O)[C@H](Cc2c[nH]c3ccccc23)NC(=O)[C@H](CC(=O)O)NC(=O)[C@H](CCC(N)=O)NC(=O)[C@H](Cc2cn(C)c3ccccc23)NC(=O)[C@H](C(C)C)NC1=O [Ac-V4(1-MeW)/H9A, Ac-ICV(1-methyl-W)QDWGAHRCT-CONH2]
[1]; 25 μg/eye IVT in 50 μl
  Indirect Exam Retina: 0
  Indirect Exam Vit.: 1
[1]; 50 μg/eye IVT in 50 μl
  Indirect Exam Retina: 0
  Indirect Exam Vit.: 2 and 1
[1]; 75 μg/eye IVT in 50 μl
  Indirect Exam Retina: 0
  Indirect Exam Vit.: 1 and 2
[1]; 100 μg/eye IVT in 50 μl
  Indirect Exam Retina: 0
  Indirect Exam Vit.: 2 and 3
[1]; 125 μg/eye IVT in 50 μl
  Indirect Exam Retina: 0
  Indirect Exam Vit.: 1
[1]; 150 μg/eye IVT in 50 μl
  Indirect Exam Retina: 0
  Indirect Exam Vit.: 2 and 1
[1]; 175 μg/eye IVT in 50 μl
  Indirect Exam Retina: 2 and 0
  Indirect Exam Vit.: 2 and 1 and 4
[1]; 200 μg/eye IVT in 50 μl
  Indirect Exam Retina: 0
  Indirect Exam Vit.: 1
[1]; IVT 25-200 μg/eye
  Pathological changes on indirect ophthalmoscopic exam: did not reveal any pathological changes
[1]; IVT, did not correlate strongly with dose
  Eyes with vitreous haze: 9 of the 32
[2]
  Compound in the vitreous: presence of the compound at all time points examined
[3]; Cynomolgus monkey, IVT 450, 1050, 2100 μg, up to 1 year
  Continued release based on serum samples: continued release of compstatin analog occurred during this time
[3]; Cynomolgus monkeys, 14 days following IVT 450, 1050 or 2100 μg
  Serum concentration relative to vitreal concentration at the same dose: approximately 100 fold lower
[3]; Cynomolgus monkeys, IVT 450, 1050 or 2100 μg, serum and vitreous HPLC at 14 days
  Duration of release from intravitreal deposits: at least two weeks
[3]; cynomolgus monkey, other: intravitreal injection, Cynomolgus vitreous, concentrations too low to form a deposit, read-out: T1/2 of clearance from the vitreous (converted)
  half-life: ~22 h
[3]; monkey studies, histopathology and physical examination
  Adverse effects attributable to the deposits: No adverse effects attributable to the deposits were observed
[4]; NZW rabbit, single-dose IVT 25, 50 and 100 μg/eye, two pathologists
  Histopathological evaluation of eyes: all the evaluated eyes were normal
[4]; rabbit studies, histopathology and physical examination
  Adverse effects attributable to the deposits: No adverse effects attributable to the deposits were observed
[5]; IVT 3 or 150 μg/eye
  Adverse reactions caused by compound within the vitreous cavity: no evidence that the compound within the vitreous cavity caused any apparent adverse reactions
  ERG values: within normal limits
  Tonometry, intraocular pressure: no drug-related changes in intraocular pressure
[5]; day 2, IVT 3 μg/eye
  Vitreal haze, binocular indirect ophthalmoscopy: diffuse vitreal haze in the right eye of one animal
[5]; day 2, IVT 150 μg/eye
  Vitreal haze, binocular indirect ophthalmoscopy: four animals
[5]; days 2 and 15 following IVT administration
  Slit lamp examinations of the anterior segment of the eye: no abnormalities
[5]; with or without intravitreal deposits
  Histopathology of the eyes: no drug-related abnormalities were observed

## Ac-ICV(5fW)QD(5fW)GAHRCT-CONH2 (Ac-ICV[Trp(5-F)]QD[Trp(5-F)]GAHRCT-NH2; disulfide 2-12) [Ac-V4(5fW)/W7(5fW)/H9A]
[6]
  Activity over compstatin: 161× more
